# Publication doi:10.1101/2023.07.31.551370, “A diversified, widespread microbial gene cluster encodes homologs of methyltransferases involved in methanogenesis” (bioRxiv, 2023)
# Key:
# ClMlp2 [1] = target: T1, ClMlp2; experiment: UV-visible spectroscopy, loss of methylcob(III)alamin absorbance at […] nm, steady-state kinetics; type: biochemical, Clostridium ljungdahlii; settings: co-substrate methylcob(III)alamin (non-physiological methyl donor); strictly anoxic nitrogen atmosphere; reverse of the hypothesized physiological reaction; fit with substrate inhibition; substrate in
# T1 construct: gene mlp2; recombinant ClMlp2
# ClMlp2 [2] = test system: T1, ClMlp2; experiment: as above; type: biochemical, Clostridium ljungdahlii; settings: co-substrate methylcob(III)alamin (non-physiological methyl donor); strictly anoxic nitrogen atmosphere; reverse of the hypothesized physiological reaction; fit with substrate inhibition; read-out: apparent KM
compound,measurement,setting,value
[SeH2] [selenide],KI (selenide substrate inhibition constant),ClMlp2 [1],3.83 mM
same,Km,ClMlp2 [2],79.8 µM
